Data reported in ChEMBL document CHEMBL5338791, “Discovery of Novel 1,3-Diphenylpyrazine Derivatives as Potent S-Phase Kinase-Associated Protein 2 (Skp2) Inhibitors for the Treatment of Cancer” (J Med Chem, 2023).
The source made the active and inactive calls. The calls are words filed in the database; no cut-off is given here.

Assays:
[1] = Toxicity in NOD-SCID mouse model xenografted with human PC-3 cells assessed as body weight change at 10 to 50 mg/kg, IG administered once every 2 days for 21 days; format: organism-based; settings: in vivo, po, 504 h, dose 10-50 mg/kg, time 21 day
PC-3 [2] = assay: Induction of cell cycle arrest in human PC-3 cells assessed as accumulation of cells at S phase at 10 uM incubated for 6 hrs by flow cytometry (reference value: 19.7 %); format: functional
MGC-803 [3] = assay: Induction of apoptosis in human MGC-803 cells assessed as late apoptotic cells at 2.5 uM incubated for 48 hrs by annexin V-FITC/PI staining based flow cytometry (reference value: 0.95 %); format: functional
MGC-803 [4] = assay: Induction of apoptosis in human MGC-803 cells assessed as late apoptotic cells at 5 uM incubated for 48 hrs by annexin V-FITC/PI staining based flow cytometry (reference value: 0.95 %); format: functional
[5] = AUC (infinity) in plasma of NOD-SCID mouse model xenografted with human PC-3 cells at 25 mg/kg, IG measured upto 48 hrs by LC-MS/MS analysis; format: ADME, organism-based; parameters: time < 48 hrs, dose 25 mg/kg, route ig; settings: po
PC-3 [6] = assay: Upregulation of p21 level in human PC-3 cells at 10 uM incubated upto 48 hrs by Western blot analysis; format: functional, cell-based
[7] = AUC (infinity) in tumor of NOD-SCID mouse model xenografted with human PC-3 cells at 25 mg/kg, IG measured upto 48 hrs by LC-MS/MS analysis; format: ADME, organism-based, Neoplasm; parameters: dose 25 mg/kg, time < 48 hrs, route ig; settings: in vivo, po
PC-3 [8] = assay: Induction of cell cycle arrest in human PC-3 cells assessed as accumulation of cells at G2 phase at 10 uM incubated for 36 hrs by flow cytometry (reference value: 19.34 %); format: functional
[9] = AUClast in tumor of NOD-SCID mouse model xenografted with human PC-3 cells at 25 mg/kg, IG measured upto 48 hrs by LC-MS/MS analysis; format: ADME, organism-based, Neoplasm; settings: in vivo, po
PC-3 [10] = assay: Induction of cell cycle arrest in human PC-3 cells assessed as accumulation of cells at G2 phase at 10 uM incubated for 6 hrs by flow cytometry (reference value: 19.34 %); format: functional
[11] = Metabolic stability in human liver S9 fraction assessed as half life at 20 umol/L preincubated for 5 mins followed by NADPH addition measured upto 60 mins by LC-MS/MS analysis; format: ADME, subcellular; settings: dose 20 µmol/L, time < 65 min
PC-3 [12] = assay: Antitumor activity against human PC-3 cells xenografted in NOD-SCID mouse model assessed as increase in apoptosis in tumor tissue at 10 to 50 mg/kg, IG administered once every 2 days for 21 days by TUNEL staining based analysis; format: functional, organism-based; settings: dose 10-50 mg/kg, time 21.0 day
MGC-803 [13] = assay: Upregulation of p21 level in human MGC-803 cells at 10 uM incubated upto 48 hrs by Western blot analysis; format: functional, cell-based
MGC-803 [14] = assay: Induction of cell cycle arrest in human MGC-803 cells assessed as accumulation of cells at G1 phase at 2.5 uM incubated for 48 hrs by flow cytometry (reference value: 54.46 %); format: functional
PC-3 [15] = assay: Induction of apoptosis in human PC-3 cells assessed as necrotic cells at 2.5 uM incubated for 48 hrs by annexin V-FITC/PI staining based flow cytometry (reference value: 0.14 %); format: functional
PC-3 [16] = assay: Upregulation of p27 level in human PC-3 cells at 10 uM incubated upto 48 hrs by Western blot analysis; format: functional, cell-based
MGC-803 [17] = assay: Induction of cell cycle arrest in human MGC-803 cells assessed as accumulation of cells at G2 phase at 10 uM incubated for 6 hrs by flow cytometry (reference value: 20.64 %); format: functional
[18] = Toxicity in NOD-SCID mouse model xenografted with human MGC-803 cells assessed as body weight change at 10 to 50 mg/kg, IG administered once every 2 days for 21 days; format: organism-based; settings: in vivo, po, 504 h, dose 10-50 mg/kg, time 21 day
[19] = Toxicity in NOD-SCID mouse model xenografted with human PC-3 cells assessed as change in lung histology at 10 to 50 mg/kg, IG administered once every 2 days for 21 days by H and E staining based analysis; format: organism-based; settings: in vivo, po, 504 h, dose 10-50 mg/kg, time 21 day
MGC-803 [20] = assay: Antitumor activity against human MGC-803 cells xenografted in NOD-SCID mouse model assessed as increase in apoptosis in tumor tissue at 10 to 50 mg/kg, IG administered once every 2 days for 21 days by TUNEL staining based analysis; format: functional, organism-based; settings: dose 10-50 mg/kg, time 21.0 day
MCF7 = assay: Antitumor activity against human MCF7 cells assessed as cell growth inhibition incubated for 72 hrs by MTT assay; format: functional, cell-based; settings: MCF7, 72 h
[21] = target: S-phase kinase-associated protein 2/Cyclin-dependent kinases regulatory subunit 1/S-phase kinase-associated protein 1 (Homo sapiens, UniProt Q13309); assay: Inhibition of GST-tagged Skp2/Skp1 (unknown origin)/His6-tagged Cks1 (unknown origin) interaction preincubated with Skp2/Skp1 for 10 mins followed by Cks1 addition measured after 20 mins by HTRF assay; format: protein assay
MGC-803 [22] = assay: Induction of apoptosis in human MGC-803 cells assessed as viable cells at 2.5 uM incubated for 48 hrs by annexin V-FITC/PI staining based flow cytometry (reference value: 98 %); format: functional; settings: read-out: Activity
MGC-803 [23] = assay: Induction of cell cycle arrest in human MGC-803 cells assessed as accumulation of cells at S phase at 10 uM incubated for 36 hrs by flow cytometry (reference value: 20.41 %); format: functional
MGC-803 [24] = assay: Induction of apoptosis in human MGC-803 cells assessed as early apoptotic cells at 2.5 uM incubated for 48 hrs by annexin V-FITC/PI staining based flow cytometry (reference value: 0.21 %); format: functional
PC-3 [25] = assay: Induction of apoptosis in human PC-3 cells assessed as early apoptotic cells at 2.5 uM incubated for 48 hrs by annexin V-FITC/PI staining based flow cytometry (reference value: 0.85 %); format: functional
PC-3 [26] = assay: Upregulation of p27 level in human PC-3 cells upto 10 uM by Western blot analysis; format: functional, cell-based; settings: time 48.0 hrs, TDE = time-dependent effect
MGC-803 [27] = assay: Induction of apoptosis in human MGC-803 cells assessed as viable cells at 5 uM incubated for 48 hrs by annexin V-FITC/PI staining based flow cytometry (reference value: 98 %); format: functional; settings: read-out: Activity
MGC-803 [28] = assay: Antitumor activity against human MGC-803 cells xenografted in NOD-SCID mouse model assessed as downregulation of Skp2 expression at 10 to 50 mg/kg, IG administered once every 2 days for 21 days by Western blot analysis; format: functional, organism-based; settings: dose 10-50 mg/kg, time 21.0 day
MGC-803 [29] = assay: Induction of cell cycle arrest in human MGC-803 cells assessed as accumulation of cells at G2 phase at 5 uM incubated for 48 hrs by flow cytometry (reference value: 21.35 %); format: functional
NCI-N87 = assay: Antitumor activity against human NCI-N87 cells with low Skp2 expression assessed as cell growth inhibition incubated for 72 hrs by MTT assay; format: functional, cell-based; settings: NCI-N87, 72 h
PC-3 [30] = assay: Induction of cell cycle arrest in human PC-3 cells assessed as accumulation of cells at G1 phase at 10 uM incubated for 24 hrs by flow cytometry (reference value: 56.81 %); format: functional
MGC-803 [31] = assay: Induction of cell cycle arrest in human MGC-803 cells assessed as accumulation of cells at G1 phase at 10 uM incubated for 48 hrs by flow cytometry (reference value: 57.09 %); format: functional

Sequence of S-phase kinase-associated protein 2/Cyclin-dependent kinases regulatory subunit 1/S-phase kinase-associated protein 1 (P61024 whole entry): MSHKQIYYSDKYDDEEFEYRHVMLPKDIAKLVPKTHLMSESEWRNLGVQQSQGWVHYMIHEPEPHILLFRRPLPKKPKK
Sequence of S-phase kinase-associated protein 2/Cyclin-dependent kinases regulatory subunit 1/S-phase kinase-associated protein 1 (Q13309 whole entry): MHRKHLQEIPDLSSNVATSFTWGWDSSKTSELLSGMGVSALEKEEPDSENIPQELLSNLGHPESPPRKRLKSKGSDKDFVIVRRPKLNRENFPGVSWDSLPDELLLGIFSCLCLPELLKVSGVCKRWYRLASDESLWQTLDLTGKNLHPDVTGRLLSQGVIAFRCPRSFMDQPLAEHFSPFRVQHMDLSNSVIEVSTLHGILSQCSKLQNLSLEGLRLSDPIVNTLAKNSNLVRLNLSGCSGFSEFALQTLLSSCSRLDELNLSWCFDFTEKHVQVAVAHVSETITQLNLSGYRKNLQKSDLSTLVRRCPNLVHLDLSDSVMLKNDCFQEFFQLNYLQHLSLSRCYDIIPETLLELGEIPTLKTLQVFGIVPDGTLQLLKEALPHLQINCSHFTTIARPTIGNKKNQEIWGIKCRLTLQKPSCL
Sequence of S-phase kinase-associated protein 2/Cyclin-dependent kinases regulatory subunit 1/S-phase kinase-associated protein 1 (P63208 whole entry, further chain): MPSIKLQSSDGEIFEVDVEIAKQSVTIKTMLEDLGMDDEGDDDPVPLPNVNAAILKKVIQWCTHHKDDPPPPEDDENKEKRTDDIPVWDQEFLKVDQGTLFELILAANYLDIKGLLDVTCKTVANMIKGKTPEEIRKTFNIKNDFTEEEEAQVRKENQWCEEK

In the case of O=C(CCl)NC1CCN(c2cnc(-c3ccccc3)c(-c3ccccc3)n2)CC1, the Activity [1] is reported as “Non-Toxic”, the Activity (PC-3 [2]) is reported as 28.11% and the Activity (MGC-803 [3]) is reported as 6.57%. For the same compound, the Activity (MGC-803 [4]) was 12.3%, the AUC(0-inf) [5] was 3550 ng·h/mL and the Activity (PC-3 [6]) was “Active”. For the same compound, the AUC [7] was 2636 ng·h/g, the Activity (PC-3 [8]) was 20.75% and the AUClast [9] was 2443.9 ng·h/g. The Activity (PC-3 [10]) was 19.87%, the half-life at 20 µM [11] was 1.08 h and the Activity (PC-3 [12]) was “Active”. The Activity (MGC-803 [13]) was “Active”, the Activity (MGC-803 [14]) was 49.77% and the Activity (PC-3 [15]) was 1.86%. For the same compound, the Activity (PC-3 [16]) was “Active”, the Activity (MGC-803 [17]) was 17.82% and the Activity [18] was “Non-Toxic”. For the same compound, the Activity [19] was “Non-Toxic”, the Activity (MGC-803 [20]) was “Active” and the IC50 (MCF7) was 4.4 µM. It also gave an IC50 [21] of 2.8 µM, a viability at 2.5 µM (MGC-803 [22]) of 89.6% and an Activity (MGC-803 [23]) of 42.29%. The Activity (MGC-803 [24]) was 2.85%, the Activity (PC-3 [25]) was 0.96% and the Activity (PC-3 [26]) was “Tde”. For the same compound, the viability at 5 µM (MGC-803 [27]) was 82.9%, the Activity (MGC-803 [28]) was “Active” and the Activity (MGC-803 [29]) was 18.74%. It also gave an IC50 (NCI-N87) of 15.5 µM, an Activity (PC-3 [30]) of 38.62% and an Activity (MGC-803 [31]) of 35.53%.
